Data taken from patent publication US20140161897A1, “METHOD FOR TREATING CANCERS, SUCH AS MYELOMA AND BREAST CANCER, WITH A COMBINATION OF TBL-12 AND VELCADE” (priority 2012, published 2014).

Tested on: human myeloma cells (U266, MM1, KMS1, and APR1)
Assay: MTT cell survival of IL-6 or TNFα stimulated myeloma cells
Type: cell-based
Conditions: U-266, with constant TBL-12 100 ug/ml, read-out: IC50 for Velcade, in combination with the TBL-12
Method: Different human myeloma cells (U266, MM1, KMS1, and APR1), which are commercially available were cultured in standard 96 well plates using standard methods to exponential growth face. The cells were stimulated by either 1L-6 (5 ng/ml), or TNFα (5 ng/ml).
The cells were then contacted with a combination of a constant concentration of TBL-12 (100 ug/ml), either by itself, or with various concentration of Velcade (2.5, 5, 10, and 15 ng). Cells which received neither TBL-12 nor Velcade were used as a control. Cell survival was measured, using an MTT assay, at 24, 48, and 72 hours.

**Q.** With `CC(C)C[C@H](NC(=O)[C@H](Cc1ccccc1)NC(=O)c1cnccn1)B(O)O` [Velcade, Bortezomib] as the molecule, how does the IC50 read?
**A.** ~5 ng/mL
